{"source": "patent US7625713B2", "about": "“Process for identifying a ligand that binds to the NEP binding site for the SMR1 pentapeptide” (Institut Pasteur, priority 2000, dated 2009)", "key": {"NEP": {"target": "T1, NEP (Rattus norvegicus, UniProt P07861)", "T1 construct": "incubations of membrane and fresh tissue slice preparations from nervous tissues; from tissue; host or cells: dorsal spinal cord of male Wistar rats (fresh slices or 100 000 x g membrane fraction)", "T1 sequence (P07861 1-750)": "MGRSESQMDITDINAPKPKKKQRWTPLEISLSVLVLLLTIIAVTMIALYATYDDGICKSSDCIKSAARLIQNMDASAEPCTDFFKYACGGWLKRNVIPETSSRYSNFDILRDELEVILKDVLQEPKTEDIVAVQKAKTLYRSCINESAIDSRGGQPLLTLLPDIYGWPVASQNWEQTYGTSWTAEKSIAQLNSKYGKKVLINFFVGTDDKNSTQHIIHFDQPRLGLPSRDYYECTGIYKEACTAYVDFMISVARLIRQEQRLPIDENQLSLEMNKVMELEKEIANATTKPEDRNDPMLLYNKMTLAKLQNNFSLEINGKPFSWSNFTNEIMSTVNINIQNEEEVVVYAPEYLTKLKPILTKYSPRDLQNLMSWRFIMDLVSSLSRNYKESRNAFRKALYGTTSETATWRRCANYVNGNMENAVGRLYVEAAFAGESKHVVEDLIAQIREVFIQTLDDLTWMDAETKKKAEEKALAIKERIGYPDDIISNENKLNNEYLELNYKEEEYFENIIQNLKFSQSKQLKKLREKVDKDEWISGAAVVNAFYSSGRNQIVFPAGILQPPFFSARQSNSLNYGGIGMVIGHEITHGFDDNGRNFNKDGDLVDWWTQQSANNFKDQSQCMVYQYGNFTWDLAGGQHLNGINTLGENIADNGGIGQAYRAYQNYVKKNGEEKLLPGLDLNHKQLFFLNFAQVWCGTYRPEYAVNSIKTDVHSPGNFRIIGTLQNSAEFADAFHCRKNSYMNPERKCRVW", "experiment": "Met-enkephalinase activity of rat spinal cord slices, Met-enkephalin RIA", "type": "biochemical", "settings": "10 μM, fresh spinal cord tissue, 20 min at 25° C.", "description": "FIG. 2-A: […] The organs are rapidly removed, dissected on ice, freed of nerve fibers and of adipose tissues and then washed in cold oxygenated glucose- and bicarbonate-containing Krebs Ringer (KRBG) solution, whose composition is the following: 120 mM NaCl-5 mM KCl-1.2 mM KH2PO4-27.5 mM NaHCO3-2.6 mM CaCl2-0.67 mM MgSO4-5.9 mM glucose. The slices of tissues are prepared either manually with the aid of a scalpel (1-2 mm thick), or mechanically with the aid of a “Tissue Chopper” (1 mm thick). Slices are then dispersed into reaction tubes where they are subjected to three successive washes in ice-cold oxygenated KRBG. […] For the experiments of analysis of the NEP peptidase activity, an ex vivo model using incubations of membrane and fresh tissue slice preparations from nervous tissues that are known to be appropriate for exploring NEP peptidase activity: i.e. the dorsal zone of rat spinal cord, was first developed. The metabolism rate of the NEP-sensitive peptides was measured using the both NEP substrates involved in the signaling of the nociceptive response: the neuropeptides Met-enkephalin and Substance P. […] (NEN, 12.5-25 nM) were used. The objective was to measure the NEP-specific endoproteolysis of these substrates. […] Furthermore, for studying the functional role of […] NO: 2), the reaction was carried out in the presence of the SMR1-peptide alone or combined with specific inhibitors of membrane peptidases which could inactivate the […] […] Herein, a competitive RIA system has been used: the quantity of radioactive antigen bound to the antibody decreases in a manner inversely proportional to the quantity of antigen contained in the standard solution or in the sample. […] The activity of enkephalinase NEP is monitored by quantification of the disappearance of the initial Met-enkephalin substrate. […] The radiolabeled antigen is iodinated Met-enkephalin (^125I-Met-Enk enkephalin) with a specific radioactivity estimated at 3000 Ci/mmol. […] After centrifugation, the bound radioactivity of the precipitate is quantified using a gamma-spectrometer."}, "male SPF Wistar/AF rats": {"tested_on": "male SPF Wistar/AF rats", "experiment": "Aversive light stimulus avoidance test (ALSAT)", "type": "in vivo, rat", "settings": "50 μg/kg, I.V.; for Total number of times the two levers were pressed / Number of times AL pressed / Number of times IL pressed: mean ± SEM; for Number of times AL pressed: active lever; for Number of times IL pressed: inactive lever", "description": "Twenty four male SPF Wistar/AF rats weighing from 300 to 320 g were used. Upon reception, the rats were weighed, marked and distributed, in groups of 3, into F-type polycarbonate cages. The animals were housed in an air-conditioned animal house at a temperature of 22-24° C. Food and drink was available to the rats ad libitum. They were subjected to a 12-hour light/dark cycle (light from 8 pm to 8 am).\nAfter a period of familiarization with the laboratory conditions of one week, the 24 rats were randomly divided into 2 groups (n=12). The rats from the various groups were all handled in the same way and under the same conditions.\nThe rat is placed in the cage for 20 minutes and the number of times each lever is pressed is counted during the experiment.\nThis model uses the aversion of the rat to a brightly lit environment. During the familiarization session and the learning session, the rat learns to control the aversive light environment of the test device in the context of operant conditioning: the animal learns to press the active lever in order to obtain periods of darkness.\nThe learning test is made up over two sessions: • Session 1, familiarization with the experimental device (day 1); • Session 2, learning test (day 2).\nThe QHNPR (SEQ ID NO: 2) peptide is suspended in a proportion of 500 μg per 5 ml of 0.01 N acetic acid, and then diluted with PBS in order to be administered at the dose of 50 μg/kg, via the i.v. route, in the dorsal caudal vein of the rat, 1 minute before the test.\nA two-sided probability unpaired t-test was used to compare the lever-pressing activity of the two groups of rats.\nThe results are expressed as mean±standard error of the mean (SEM)."}}, "note": "Where a SMILES comes first, the peptide text is derived from it."}
{"compound": "N=C(N)NCCC[C@H](NC(=O)[C@@H]1CCCN1C(=O)[C@H](CC(N)=O)NC(=O)[C@H](Cc1c[nH]cn1)NC(=O)[C@@H](N)CCC(N)=O)C(=O)O", "note": "[sialorphin, Gln-His-Asn-Pro-Arg] (H-QHNPR-OH; N-terminus and C-terminus assumed)", "values": [{"measurement": "protection of Met-enkephalin from degradation", "setting": "NEP", "result": 96, "unit": "%"}, {"measurement": "Total number of times the two levers were pressed", "setting": "male SPF Wistar/AF rats; Session 1, 1 minute before the test", "result": "10.08 ± 1.98"}, {"measurement": "Number of times AL pressed", "setting": "male SPF Wistar/AF rats; Session 1", "result": "4.83 ± 1.02"}, {"measurement": "Number of times IL pressed", "setting": "male SPF Wistar/AF rats; Session 1", "result": "5.25 ± 1.14"}, {"measurement": "Number of times AL pressed", "setting": "male SPF Wistar/AF rats; Session 2", "result": "2.67 ± 0.47"}, {"measurement": "Number of times IL pressed", "setting": "male SPF Wistar/AF rats; Session 2", "result": "2.58 ± 0.94"}, {"measurement": "Total number of times the two levers were pressed", "setting": "male SPF Wistar/AF rats; Session 2", "result": "5.25 ± 5.09"}, {"measurement": "Distinction between the levers", "setting": "male SPF Wistar/AF rats; both test sessions", "result": "no distinction between the two levers"}]}
